Legend:
TR-ΔC23-His-P9-1 = TR-ΔC23-His-P9-1 (Southern rice black-streaked dwarf virus, UniProt B2LHU4); settings: 298 K, 20 μM protein, excitation 275 nm, Hill equation
TR-ΔN6-His-P9-1 = TR-ΔN6-His-P9-1 (Southern rice black-streaked dwarf virus, UniProt B2LHU4); settings: 298 K, 20 μM protein, excitation 275 nm, Hill equation
WT-His-P9-1 [1] = target: WT-His-P9-1 (Southern rice black-streaked dwarf virus, UniProt B2LHU4, S138T); test: biochemical
WT-His-P9-1 [2] = target: T1, WT-His-P9-1 (Southern rice black-streaked dwarf virus, UniProt B2LHU4); test: intrinsic fluorescence quenching titration; assay type: binding; settings: 298 K, pH 7.4, 20 μM protein, excitation 275 nm, Hill equation
T1 construct: protein encoded by first ORF of segment S9 (P9)

SMILES: CCOP(=O)(OCC)C(Nc1nc2c(C)cccc2s1)c1ccccc1F (stereo not shown) [DFL, dufulin]
- Binding parameters / KA (M^-1) (TR-ΔC23-His-P9-1): 1 × 10^4.470
- Binding parameters / KA (M^-1) (TR-ΔN6-His-P9-1): 1 × 10^6.421
- Kd (WT-His-P9-1 [1]): 9.73 µM
- Binding parameters / KA (M^-1) (WT-His-P9-1 [2]): 1 × 10^5.061
